These results are taken from patent US20250332170A1, “VANDETANIB REDUCES INFLAMMATORY CYTOKINES AND AMELIORATES COVID-19” (Collaborations Pharmaceuticals, Inc., priority 2021, published 2025).

In general, IC50 refers to the point on the concentration scale where inhibition reaches its midpoint. What is called inhibition is the relative decrease from the control value, in per cent. The CC50 is the concentration at which the toxic effect on the cells reaches its halfway point. The low end stands for harm at low concentration, the high end for better tolerance by the cells.

“Also recorded” adds a separate entry of the source. Read-outs that look alike come from different tables or passages of the source.

In data set [1] the test system is SARS-CoV-2. The data set is described as follows: microbe, parasite or virus in culture. The class given is cell-based. As to conditions: Severe acute respiratory syndrome coronavirus 2, A549-ACE2.
The test system of data set [2] is murine hepatitis virus (MHV). As to the kind of experiment: microbe, parasite or virus in culture. The data set is classed as cell-based.
A short description of data set [3]: Cytotoxicity in Caco-2 cells (CC50). The class given is cell-based. The note with it: human.
The subject of data set [4] is SARS-CoV-2. The arrangement: species or system K18-hACE2 mice. As to conditions: mouse, in vivo.
Data set [5] has as its system HCoV 229E. The data set is described as follows: HCoV 229E antiviral assay in Huh-7 cells. The class given is cell-based, human coronavirus 229E. As to conditions: 5 μM.
The conditions of data set [6]: in vivo; cited from earlier work.
In data set [7] the test system is SARS-CoV-2 (isolate USA WA1/2020).
The subject of data set [8] is VEGF. The note with it: by day 28, severe COVID-19; cited from earlier work.

Sequence of VEGF (P15692 207-311 limits assumed): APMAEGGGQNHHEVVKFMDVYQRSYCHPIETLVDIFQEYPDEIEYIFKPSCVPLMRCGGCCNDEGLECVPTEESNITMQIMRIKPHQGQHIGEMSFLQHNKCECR

In the case of `COc1cc2c(Nc3ccc(Br)cc3F)ncnc2cc1OCC1CCN(C)CC1` [Vandetanib], in data set [1], the IC50 was 790 nM. Besides, the inhibition at 10 µM in data set [2] (Murine coronavirus, DBT cells) turned out to be 97%. In data set [2] (Murine coronavirus, DBT cells, FIG. 5, read-out: IC50 against MHV), the IC50 was determined as 1600 nM. This compound yielded a CC50 in data set [3] of 4100 nM. Further, in data set [4], the “Lung CCL2 level” value was “significantly reduced; also recorded: decreased”, the “Lung CCL3 level” value is reported as “significantly reduced; also recorded: decreased”, the “Lung CCL4 level” value is reported as “reduced; also recorded: decreased” and the “Lung IL-6 level” value is “statistically significantly reduced”. Moreover, in data set [4], the “Lung IL-10 level” value is “statistically significantly reduced”; the “Lung TNF-α level” value is given as “statistically significantly reduced”; the “Lung pathology / inflammatory cell infiltrates” value is “mitigated inflammatory cell infiltrates”; the “Lung viral load (viral RNA, RT-PCR)” value is “did not reduce”. Further, in data set [4] (listed as vandetanib), the “Lung IFN-1β level” value was “restored the levels; also recorded: rescued”, the “Lung IL-6 level” value is “reduces”, the “Lung IL-10 level” value is “reduces” and the “Lung TNF-α level” value is reported as “reduces”. In addition, in data set [4] (listed as vandetanib), the “Lung pathology / inflammatory cell infiltrates” value is given as “clear protective effect; also recorded: significant treatment effect with mild infiltration” and the “Lung viral load (viral RNA, RT-PCR)” value is “no significant reduction; also recorded: not observed”. In addition, in data set [5], the “Reduction of HCoV-229E titer” value was over 3. In data set [6], the “Absorption from the gut” value is reported as “well absorbed”, the Average half-life was 19 days, the “Excreted via the feces” value is reported as 44% and the “Excreted via the urine” value is on record as 25%. For the same compound, in data set [6], the Protein-bound is listed as 92-94%, the Terminal excretion half-life is 20 days and the “Time to peak blood plasma concentrations” value was 4 to 10 h.

For Alisertib, the “% Inhibition MHV-DBT cells 10 μM” value in data set [2] worked out at 19%.

For the compound `CNCc1ccc(-c2[nH]c3cc(F)cc4c3c2CCNC4=O)cc1` [Rucaparib], the inhibition at 10 µM in data set [2] (Murine coronavirus, DBT cells) was -48%.

Regarding `CCN(CC)CCNC(=O)c1c(C)[nH]c(/C=C2\C(=O)Nc3ccc(F)cc32)c1C` [Sunitinib], the inhibition at 10 µM in data set [2] (Murine coronavirus, DBT cells) was 96%.

For `Cc1cc(Nc2ncc(Cl)c(Nc3ccccc3S(=O)(=O)C(C)C)n2)c(OC(C)C)cc1C1CCNCC1` [Ceritinib], the inhibition at 10 µM in data set [2] (Murine coronavirus, DBT cells) worked out at 94%.

`COc1cc2nccc(Oc3ccc(NC(=O)Nc4cc(C)on4)c(Cl)c3)c2cc1OC` [Tivozanib]: the inhibition at 10 µM in data set [2] (Murine coronavirus, DBT cells) was determined as 29%.

Regarding `CC(=O)Nc1cccc(-n2c(=O)n(C3CC3)c(=O)c3c(Nc4ccc(I)cc4F)n(C)c(=O)c(C)c32)c1` [Trametinib], in data set [2] (Murine coronavirus, DBT cells), the inhibition at 10 µM was -40%.

Take `O=C(c1ccc(F)c(F)c1Nc1ccc(I)cc1F)N1CC(O)([C@@H]2CCCCN2)C1` [Cobimetinib]: the inhibition at 10 µM in data set [2] (Murine coronavirus, DBT cells) was determined as 82%.

On to `Cc1ncc(NC(=O)c2ccc(CN3CCN(C)CC3)c(C(F)(F)F)c2)cc1Nc1nccc(-c2cccnc2)n1` [Flumatinib], for which the inhibition at 10 µM in data set [2] (Murine coronavirus, DBT cells) was determined as 83%.

For `CNC(=O)c1cc(Oc2ccc(NC(=O)Nc3ccc(Cl)c(C(F)(F)F)c3)c(F)c2)ccn1` [Regorafenib], in data set [2] (Murine coronavirus, DBT cells), the inhibition at 10 µM was 65%.

In the case of `N#CC[C@H](C1CCCC1)n1cc(-c2ncnc3[nH]ccc23)cn1` [Ruxolitinib], the inhibition at 10 µM in data set [2] (Murine coronavirus, DBT cells) was -46%.

As to `CN(C)C(=O)c1cc2cnc(Nc3ccc(N4CCNCC4)cn3)nc2n1C1CCCC1` [Ribociclib], the inhibition at 10 µM in data set [2] (Murine coronavirus, DBT cells) is -4%.

For `COC(=O)c1ccc2c(c1)NC(=O)/C2=C(\Nc1ccc(N(C)C(=O)CN2CCN(C)CC2)cc1)c1ccccc1` [Nintedanib], the inhibition at 10 µM in data set [2] (Murine coronavirus, DBT cells) is 95%.

For `CS(=O)(=O)CCNCc1ccc(-c2ccc3ncnc(Nc4ccc(OCc5cccc(F)c5)c(Cl)c4)c3c2)o1` [Lapatinib], the inhibition at 10 µM in data set [2] (Murine coronavirus, DBT cells) came out at 88%.

With `Cc1ccc(Nc2nccc(N(C)c3ccc4c(C)n(C)nc4c3)n2)cc1S(N)(=O)=O` [Pazopanib], the inhibition at 10 µM in data set [2] (Murine coronavirus, DBT cells) came to 20%.

On to `CO[C@H]1C[C@@H]2CC[C@@H](C)[C@@](O)(O2)C(=O)C(=O)N2CCCC[C@H]2C(=O)O[C@H]([C@H](C)C[C@@H]2CC[C@@H](OC(=O)C(C)(CO)CO)[C@H](OC)C2)CC(=O)[C@H](C)/C=C(\C)[C@@H](O)[C@@H](OC)C(=O)[C@H](C)C[C@H](C)/C=C/C=C/C=C/1C` [Temsirolimus], for which the inhibition at 10 µM in data set [2] (Murine coronavirus, DBT cells) came to 4%.

With `Cc1ccc(C(=O)Nc2ccc(CN3CCN(C)CC3)c(C(F)(F)F)c2)cc1C#Cc1cnc2cccnn12` [Ponatinib], in data set [2] (Murine coronavirus, DBT cells), the inhibition at 10 µM came out at 98%.

As for `Cc1cn(-c2cc(NC(=O)c3ccc(C)c(Nc4nccc(-c5cccnc5)n4)c3)cc(C(F)(F)F)c2)cn1` [Nilotinib], the inhibition at 10 µM in data set [2] (Murine coronavirus, DBT cells) worked out at 66%.

For `COc1cc2nccc(Oc3ccc(NC(=O)NC4CC4)c(Cl)c3)c2cc1C(N)=O` [Lonvatinib], the inhibition at 10 µM in data set [2] (Murine coronavirus, DBT cells) is -12%.

Turning to `Cc1ccc(NC(=O)c2ccc(CN3CCN(C)CC3)cc2)cc1Nc1nccc(-c2cccnc2)n1` [Imatinib], in data set [2] (Murine coronavirus, DBT cells), the inhibition at 10 µM was 81%.

`CCS(=O)(=O)N1CCN(c2ccc(Nc3ncc(C(N)=O)c(NC4CC4)n3)cc2)CC1` [Cerdulatinib]: the inhibition at 10 µM in data set [2] (Murine coronavirus, DBT cells) came to 78%.

As to `CCCS(=O)(=O)Nc1ccc(F)c(C(=O)c2c[nH]c3ncc(-c4ccc(Cl)cc4)cc23)c1F` [Vemourafenib], the inhibition at 10 µM in data set [2] (Murine coronavirus, DBT cells) was -3%.

Consider `C#Cc1cccc(Nc2ncnc3cc(OCCOC)c(OCCOC)cc23)c1` [Erlotinib], for which the inhibition at 10 µM in data set [2] (Murine coronavirus, DBT cells) was 32%.

As to `CCc1cc2c(cc1N1CCC(N3CCOCC3)CC1)C(C)(C)c1[nH]c3cc(C#N)ccc3c1C2=O` [Alectinib], the inhibition at 10 µM in data set [2] (Murine coronavirus, DBT cells) amounted to 62%.

As to `CNC(=O)c1ccc(Nc2ncc(C(F)(F)F)c(NCc3nccnc3N(C)S(C)(=O)=O)n2)cc1` [Defactinib], the inhibition at 10 µM in data set [2] (Murine coronavirus, DBT cells) is 36%.

For `CN(C)C/C=C/C(=O)Nc1cc2c(Nc3ccc(F)c(Cl)c3)ncnc2cc1O[C@H]1CCOC1` [Afatinib], the inhibition at 10 µM in data set [2] (Murine coronavirus, DBT cells) was determined as 98%.

For the compound Crizotinib, in data set [2], the “% Inhibition MHV-DBT cells 10 μM” value came to 96%. The “Calu-3 result (toxicity)” value in data set [7] is given as “toxic”.

As to `CNC(=O)c1cc(Oc2ccc(NC(=O)Nc3ccc(Cl)c(C(F)(F)F)c3)cc2)ccn1` [Sorafenib], in data set [2] (Murine coronavirus, DBT cells), the inhibition at 10 µM came to 74%.

Regarding `COc1cc(N2CCC(N3CCN(C)CC3)CC2)ccc1Nc1ncc(Cl)c(Nc2ccccc2P(C)(C)=O)n1` [Brigatinib], the inhibition at 10 µM in data set [2] (Murine coronavirus, DBT cells) was found to be 39%.

Turning to `Cc1nc(Nc2ncc(C(=O)Nc3c(C)cccc3Cl)s2)cc(N2CCN(CCO)CC2)n1` [Dasatinib], the inhibition at 10 µM in data set [2] (Murine coronavirus, DBT cells) came to 65%.

For bevacizumab, in data set [8], the Patients discharged is reported as 65%, the “Patients with improvement in oxygen-support status” value is 92% and the “Patients with worsened oxygen-support status or died” value is on record as “none”.

With `CCC(CC)COC(=O)[C@H](C)N[P@](=O)(OC[C@H]1O[C@@](C#N)(c2ccc3c(N)ncnn23)[C@H](O)[C@@H]1O)Oc1ccccc1` [remdesivir], the IC50 in data set [1] was 110 nM.

`C=CC(=O)N1CCC[C@@H](n2nc(-c3ccc(Oc4ccccc4)cc3)c3c(N)ncnc32)C1` [Ibrutinib]: in data set [2] (Murine coronavirus, DBT cells), the inhibition at 10 µM is -69%.

Consider `C[C@@H]1CCN(C(=O)CC#N)C[C@@H]1N(C)c1ncnc2[nH]ccc12` [Tofacitinib], for which, in data set [2] (Murine coronavirus, DBT cells), the inhibition at 10 µM is -7%.

As to `C[C@]1(O)C[C@@H](c2nc(-c3ccc4ccc(-c5ccccc5)nc4c3)c3c(N)nccn32)C1` [Linsitinib], the inhibition at 10 µM in data set [2] (Murine coronavirus, DBT cells) came to 46%.

On to `CC(=O)c1c(C)c2cnc(Nc3ccc(N4CCNCC4)cn3)nc2n(C2CCCC2)c1=O` [Palbociclib], for which the inhibition at 10 µM in data set [2] (Murine coronavirus, DBT cells) was found to be 5%.

On to `CC[C@H](Nc1ncnc2nc[nH]c12)c1nc2cccc(F)c2c(=O)n1-c1ccccc1` [Idelalisib], for which, in data set [2] (Murine coronavirus, DBT cells), the inhibition at 10 µM turned out to be 17%.

`CN1CCN(c2ccc(C(=O)Nc3n[nH]c4ccc(Cc5cc(F)cc(F)c5)cc34)c(NC3CCOCC3)c2)CC1` [Entrectinib] had a half-inhibitory concentration (IC50) in data set [1] of 1970 nM. Further, in data set [2] (Murine coronavirus, DBT cells), the inhibition at 10 µM stood at 97%. In data set [3], this compound gave a 50% cytotoxic concentration (CC50) of 3600 nM. In addition, the “Reduction of HCoV-229E titer” value in data set [5] is given as 2.7 logTCID50/mL.

For the compound `COc1cc2nccc(Oc3ccc(NC(=O)C4(C(=O)Nc5ccc(F)cc5)CC4)cc3)c2cc1OC` [Cabozantinib], in data set [2] (Murine coronavirus, DBT cells), the inhibition at 10 µM came to 61%.

Regarding `CC(C)(C)c1nc(-c2cccc(NS(=O)(=O)c3c(F)cccc3F)c2F)c(-c2ccnc(N)n2)s1` [Dabrafenib], the inhibition at 10 µM in data set [2] (Murine coronavirus, DBT cells) is -12%.

As to `C=CC(=O)Nc1cc(Nc2nccc(-c3cn(C)c4ccccc34)n2)c(OC)cc1N(C)CCN(C)C` [Osimertinib], the inhibition at 10 µM in data set [2] (Murine coronavirus, DBT cells) was determined as 98%.

`Cc1cccc(-c2nn3c(c2-c2ccnc4ccc(C(N)=O)cc24)CCC3)n1` [Galunisertib]: the inhibition at 10 µM in data set [2] (Murine coronavirus, DBT cells) worked out at 26%.

With `CO[C@H]1C[C@@H]2CC[C@@H](C)[C@@](O)(O2)C(=O)C(=O)N2CCCC[C@H]2C(=O)O[C@H]([C@H](C)C[C@@H]2CC[C@@H](OCCO)[C@H](OC)C2)CC(=O)[C@H](C)/C=C(\C)[C@@H](O)[C@@H](OC)C(=O)[C@H](C)C[C@H](C)/C=C/C=C/C=C/1C` [Everolimus], the inhibition at 10 µM in data set [2] (Murine coronavirus, DBT cells) was 46%.
